From patent US12018023B2 (NERVIANO MEDICAL SCIENCES S.R.L., priority 2018, dated 2024)
pIC50: −log10 of the molar value.

Columns and labels:
[1] = target: T1, IDH1^R132H homodimer enzyme (Homo sapiens, UniProt O75874, R132H); assay: NADPH depletion assay, IDH1 R132H; format: biochemical
T1 construct: purchased not specified
Summary of the method: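 IDH1 R132H enzyme (8 nM as diluted) in Tris-HCl pH 7.6 with 10 mM MgCl2, 0.001% Triton X-100 and 4 mM β-mercaptoethanol is preincubated 15 min at RT with compound. Substrate mix (12 uM NADPH, 3.4 mM α-ketoglutarate) is added for 60 min; remaining NAD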

[2] = system: HT-1080 (IDH1^R132C); assay: Cellular 2-HG production assay, HT-1080; format: cell-based; conditions: Homo sapiens, HT-1080, 72 h, inhibition of 2HG production, 72 hr incubation, LC-MS/MS; read-out: HT1080 2-HG IC50
Experimental: (§1) Cell lines HT-1080 (commercially available) and U87-MG-IDH1^R132H (obtained in analoy to the procedure reported in J. Mol. Neurosci 2013, 50, 165-71) are maintained in E-MEM 10% FCS and incubated at 37° C. in a humidified 5% CO2 atmosphere. Stably transfected U87-MG cell lines are also supplemented with 500 μg/mL G418.
(§2) Cells are seeded into 96 well black flat bottom plates at a density of 500 cells/well in 100 μL complete medium. After 24 hr the medium is replaced with 200 uL of fresh medium and compounds (dissolved into DMSO) are administrated to the cells using D300E Digital Dispenser (Tecan).
(§3) After 72 hr of incubation 100 uL from each well are collected and used for 2HG (R(−)-2-hydroxyglutarate) quantification.
(§4) Levels of 2-HG in cell culture media are determined by LC-MS/MS. Cell supernatants (100 μL/well) are treated with 1 M aqueous trichloroacetic acid containing 130 μM of the internal standard 2-HG-d3 (20 μL/well) in a 96-well plate.
(§5) The plates are sealed, mildly vortexed for 60 minutes, centrifuged at 4,000 RPM for 15 minutes, placed in a refrigerated autosampler taking care not to shake them, and aliquots of the upper part of the samples are directly injected in the chromatographic system. Calibration standards are obtained by ten fold dilution of aqueous 2-HG stock solutions with blank cell culture medium and denatured exactly in the same way as described above for samples. Samples and standards are assayed for 2-HG by reversed phase chromatography on a C18 column eluted with aqueous 0.15% formic acid and briefly washed with 90% methanol at the end of the run. 2-HG is determined by negative ion electrospray ionization with the internal standard method on a triple quadrupole mass spectrometer monitoring the MRM transitions 147>129 (2-HG) and 150>132 (2-HG-d3). 2-HG inhibition was calculated by comparing treated versus control data using Assay Explore (Symyx) software, with IC50 determined using a sigmoidal fitting algorithm.

[3] = system: U87MG_IDH1R132H; assay: Cellular 2-HG production assay, U87-MG-IDH1 R132H; format: cell-based; conditions: inhibition of 2HG production, 72 hr incubation, LC-MS/MS
Experimental: as §1, §2, §3, §4, §5

[4] = target: T2, IDH1^R132C (Homo sapiens, UniProt O75874, R132C); assay: NADPH depletion assay, IDH1 R132C; format: biochemical
T2 construct: purchased not specified
Summary of the method: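 Fluorescence readout (Ex544/Em590) of NADPH left after diaphorase/resazurin addition. Alpha-ketoglutarate 0.14 mM final, enzyme 2 nM final; compound preincubation 15 min, then 60 min reaction, both at room temperature, pH 7.6 Tris buffer.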

[5] = target: T3, IDH2^R172K (Homo sapiens, UniProt P48735, R172K); assay: NADPH depletion assay, IDH2 R172K; format: biochemical
T3 construct: purchased not specified
T3 sequence (P48735 40-452 R172K): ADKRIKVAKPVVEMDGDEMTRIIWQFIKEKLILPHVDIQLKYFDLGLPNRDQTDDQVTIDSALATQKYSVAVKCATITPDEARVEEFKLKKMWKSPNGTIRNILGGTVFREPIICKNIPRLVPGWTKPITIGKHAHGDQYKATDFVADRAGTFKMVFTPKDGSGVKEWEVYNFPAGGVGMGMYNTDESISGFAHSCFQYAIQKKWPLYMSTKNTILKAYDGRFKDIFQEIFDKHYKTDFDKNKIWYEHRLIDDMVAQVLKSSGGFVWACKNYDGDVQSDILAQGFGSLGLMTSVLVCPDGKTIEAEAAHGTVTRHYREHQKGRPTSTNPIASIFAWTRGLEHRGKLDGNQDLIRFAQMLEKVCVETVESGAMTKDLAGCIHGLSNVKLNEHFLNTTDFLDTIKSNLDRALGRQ
Summary of the method: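 This NADPH depletion assay measures NADPH left after conversion of alpha-ketoglutarate (0.55 mM final) by 16 nM IDH2 R172K over 60 min at room temperature, after a 15 min compound preincubation in pH 7.6 Tris buffer. Substrate mix held 12 μM NADPH. Diaphorase/resazurin gave the fluorescence read-out at 544/590 nm.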

[6] = target: T4, IDH1WT enzyme (Homo sapiens, UniProt O75874); assay: Enzymatic assay for IDH1 wild-type (NADPH forming assay); format: biochemical
T4 construct: purchased not specified
Experimental: IDH1WT enzymatic activity converting isocitric acid to alpha-ketoglutarate is measured using a NADPH forming assay. In the assay the forming cofactor is measured in continuous with the addition of a catalytic excess of diaphorase and resazurin, to generate a fluorescent signal in proportion to the amount of NADPH forming.
Compounds were preincubated with the enzyme, then the reaction was started by the addition of NADP^+, isocitrate, diaphorase and a corresponding substrate, resazurin. Diaphorase reduces resazurin to the highly fluorescent resorufin with the concomitant oxidation of NADPH to NADP. Specifically, 0.2 uL of test compound, previously serially diluted 1 to 3, 10 experimental points from 1 mM in DMSO, was added to 0.016 nM IDH1WT enzyme in 10 μL of Assay Buffer (150 mM NaCl, 50 mM Tris-HCl pH 7.6, 10 mM MgCl2, 0.001% Triton X-100, 4 mM β-mercaptoethanol); the mixture is incubated for 15 minutes at room temperature. The reaction is started with the addition of 10 μL of Substrate Mix (400 μM NADP^+, 40 μM iso-citrate, 5 ugr/mL Diaphorase and 7 μM resazurin in Assay Buffer), the mixture is incubated at room temperature and the reaction is reading on a ViewLux as platereader at Ex544/Em590 in continuous.

T1 sequence (O75874 whole entry R132H): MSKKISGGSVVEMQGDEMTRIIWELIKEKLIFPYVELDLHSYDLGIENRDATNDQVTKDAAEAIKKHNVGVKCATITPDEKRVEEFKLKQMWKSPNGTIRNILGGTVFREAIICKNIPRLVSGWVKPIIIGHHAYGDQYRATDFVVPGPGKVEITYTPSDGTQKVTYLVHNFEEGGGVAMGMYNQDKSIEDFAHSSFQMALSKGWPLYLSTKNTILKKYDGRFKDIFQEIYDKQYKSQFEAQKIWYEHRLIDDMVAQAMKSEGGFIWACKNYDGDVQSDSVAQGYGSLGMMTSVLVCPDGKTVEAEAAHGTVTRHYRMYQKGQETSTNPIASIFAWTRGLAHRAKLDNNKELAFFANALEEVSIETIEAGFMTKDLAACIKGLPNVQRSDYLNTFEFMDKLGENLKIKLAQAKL
T2 sequence (O75874 whole entry R132C): as the sequence (O75874 whole entry R132H) above, with H132C counted along it
T4 sequence (O75874 whole entry): as the sequence (O75874 whole entry R132H) above, with H132R counted along it

SMILES | pIC50 [1] | pIC50 [2] | pIC50 [3] | pIC50 [4] | pIC50 [5] | pIC50 [6]
C[C@H](Nc1ncc2ccc(=O)n(CC(C)(C)C)c2n1)c1ccc(C(=O)NC2CCC(F)(F)CC2)c(F)c1 [cpd 89, N-(4,4-difluorocyclohexyl)-4-[(1S)-1-{[8-(2,2-dimethylpropyl)-7-oxo-7,8-dihydropyrido[2,3-d]pyrimidin-2-yl]amino}ethyl]-2-fluorobenzamide] | 6.95 | 6.30 | 6.30 | 7.12 |  | 
C[C@H](Nc1ncc2ccc(=O)n(CC(C)(C)C)c2n1)c1ccc(Oc2ccccc2)cc1 [cpd 49, 8-(2,2-dimethylpropyl)-2-{[(1S)-1-(4-phenoxyphenyl)ethyl]amino}pyrido[2,3-d]pyrimidin-7(8H)-one] | 6.93 | 6.51 | 6.29 | 7.17 | 5.36 | 
CC(C)n1c(=O)ccc2cnc(N[C@@H](C)c3ccc(CN4CCCC(F)(F)C4)cc3)nc21 [cpd 170, 2-{[(1S)-1-{4-[(3,3-difluoropiperidin-1-yl)methyl]phenyl}ethyl]amino}-8-(propan-2-yl)pyrido[2,3-d]pyrimidin-7(8H)-one] | 6.78 | 6.35 | 6.20 | 7.05 | 5.51 | 
CC(C)[C@H](C)n1c(=O)ccc2cnc(N[C@@H](C)c3ccc(CN4CCOCC4)c(F)c3)nc21 [cpd 68, 2-({(1S)-1-[3-fluoro-4-(morpholin-4-ylmethyl)phenyl]ethyl}amino)-8-[(2S)-3-methylbutan-2-yl]pyrido[2,3-d]pyrimidin-7(8H)-one] | 7.11 | 6.50 | 6.19 | 7.54 |  | 
C=CC(=O)N1CCN(Cc2ccc([C@H](C)Nc3ncc4ccc(=O)n(C(C)C)c4n3)cn2)CC1 [cpd 213, 2-{[(1S)-1-{6-[(4-acryloylpiperazin-1-yl)methyl]pyridin-3-yl}ethyl]amino}-8-(propan-2-yl)pyrido[2,3-d]pyrimidin-7(8H)-one] |  |  |  |  |  | 5.37
C[C@H](Nc1ncc2ccc(=O)n(CC(C)(C)C)c2n1)c1ccc(CN2CCOCC2)cc1 [cpd 110, 8-(2,2-dimethylpropyl)-2-({(1S)-1-[4-(morpholin-4-ylmethyl)phenyl]ethyl}amino)pyrido[2,3-d]pyrimidin-7(8H)-one] | 6.62 | 6.23 | 5.58 | 6.98 |  | 
CC[C@H](C)n1c(=O)ccc2cnc(N[C@@H](C)c3ccc(CN4CCCC(F)(F)C4)cc3)nc21 [cpd 62, 8-[(2S)-butan-2-yl]-2-{[(1S)-1-{4-[(3,3-difluoropiperidin-1-yl)methyl]phenyl}ethyl]amino}pyrido[2,3-d]pyrimidin-7(8H)-one] | 7.09 | 6.77 | 6.34 | 7.36 | 5.24 | 
C[C@H](Nc1ncc2ccc(=O)n(CC(C)(C)C#N)c2n1)c1ccc2ccccc2c1 [cpd 129, 2,2-dimethyl-3-[2-{[(1S)-1-(naphthalen-2-yl)ethyl]amino}-7-oxopyrido[2,3-d]pyrimidin-8(7H)-yl]propanenitrile] | 6.71 |  | 5.42 | 7.01 | 5.18 | 
CC(C)[C@H](C)n1c(=O)ccc2cnc(N[C@@H](C)c3ccc(CN4CCCC(F)(F)C4)cc3)nc21 [cpd 65, 2-{[(1S)-1-{4-[(3,3-difluoropiperidin-1-yl)methyl]phenyl}ethyl]amino}-8-[(2S)-3-methylbutan-2-yl]pyrido[2,3-d]pyrimidin-7(8H)-one] | 7.70 | 7.09 | 6.75 | 7.96 |  | 
C[C@H](Nc1ncc2ccc(=O)n(CC(C)(C)C)c2n1)c1ccc(-c2ccnc(F)c2)cc1 [cpd 132, 8-(2,2-dimethylpropyl)-2-({(1S)-1-[4-(2-fluoropyridin-4-yl)phenyl]ethyl}amino)pyrido[2,3-d]pyrimidin-7(8H)-one] | 6.71 |  | 5.49 | 6.91 | 5.21 | 

More lines, now with the values ahead:

pIC50 [1] | pIC50 [2] | pIC50 [3] | pIC50 [4] | pIC50 [5] | pIC50 [6] | SMILES
6.79 | 6.45 | 6.16 | 7.03 | 5.34 |  | C[C@H](Nc1ncc2ccc(=O)n([C@@H](C)C3CCCCC3)c2n1)c1ccc(CN2CCCC(F)(F)C2)cc1 [cpd 66, 8-[(1S)-1-cyclohexylethyl]-2-{[(1S)-1-{4-[(3,3-difluoropiperidin-1-yl)methyl]phenyl}ethyl]amino} pyrido[2,3-d]pyrimidin-7(8H)-one]
6.75 | 6.51 | 6.21 | 7.00 | 5.30 |  | C[C@H](Nc1ncc2ccc(=O)n(CC(C)(C)C(F)(F)F)c2n1)c1ccc(CN2CCC(F)(F)CC2)cc1 [cpd 116, 2-{[(1S)-1-{4-[(4,4-difluoropiperidin-1-yl)methyl]phenyl}ethyl]amino}-8-(3,3,3-trifluoro-2,2-dimethylpropyl) pyrido[2,3-d]pyrimidin-7(8H)-one]
6.48 |  | 5.74 | 6.66 | 5.25 |  | C[C@H](Nc1ncc2ccc(=O)n(CC3CCC3)c2n1)c1ccc(CN2CCC(F)(F)CC2)cc1 [cpd 109, 8-(cyclobutylmethyl)-2-{[(1S)-1-{4-[(4,4-difluoropiperidin-1-yl)methyl]phenyl}ethyl]amino}pyrido[2,3-d]pyrimidin-7(8H)-one]
6.44 |  | 5.60 | 6.55 | 5.26 |  | C[C@H](Nc1ncc2ccc(=O)n(CC3CCCCC3)c2n1)c1ccc(CN2CCC(F)(F)CC2)cc1 [cpd 113, 8-(cyclohexylmethyl)-2-{[(1S)-1-{4-[(4,4-difluoropiperidin-1-yl)methyl]phenyl}ethyl]amino}pyrido[2,3-d]pyrimidin-7(8H)-one]
6.56 |  | 5.75 | 6.92 | 5.29 |  | CC(C)Cn1c(=O)ccc2cnc(N[C@@H](C)c3ccc(CN4CCC(F)(F)CC4)cc3)nc21 [cpd 104, 2-{[(1S)-1-{4-[(4,4-difluoropiperidin-1-yl)methyl]phenyl}ethyl]amino}-8-(2-methylpropyl)pyrido[2,3-d]pyrimidin-7(8H)-one]
